Source: patent US10882837B2, “Amide compounds and use thereof” (ALPHALA CO., LTD., priority 2017, dated 2021)

Tests used:
glucagon receptor (GCGR) = biological target: T1, glucagon receptor (GCGR) (Homo sapiens, UniProt P47871); assay: Glucagon cAMP inhibition assay (Cisbio cAMP Dynamic 2 HTRF); type: cell-based; details: GCGR overexpressed CHO-K1 cells or human primary hepatocytes (not specified); glucagon at EC50
T1 construct: expressed in transfected cells; host or cells: CHO-K1
In short: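 GCGR-overexpressing CHO-K1 cells or human primary hepatocytes in HBSS with 0.1% BSA and 800 nM IBMX, pre-incubated 30 min with compound (1% DMSO final), then stimulated 30 min at room temperature with glucagon at its EC50. cAMP measured by HTRF after 60 min lysis; IC50 from non-linear regression.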

GCGR = GCGR (Homo sapiens, UniProt P47871); assay: I125-glucagon binding assay (competition, GCGR membrane fractions); design: expressed in transfected cells; host or cells: CHO-K1; details: for IC50: competition with I125-glucagon 0.0625 nM, membrane fractions from GCGR overexpressed CHO-K1 cells
Chain of GCGR (P47871 26-477, species assumed): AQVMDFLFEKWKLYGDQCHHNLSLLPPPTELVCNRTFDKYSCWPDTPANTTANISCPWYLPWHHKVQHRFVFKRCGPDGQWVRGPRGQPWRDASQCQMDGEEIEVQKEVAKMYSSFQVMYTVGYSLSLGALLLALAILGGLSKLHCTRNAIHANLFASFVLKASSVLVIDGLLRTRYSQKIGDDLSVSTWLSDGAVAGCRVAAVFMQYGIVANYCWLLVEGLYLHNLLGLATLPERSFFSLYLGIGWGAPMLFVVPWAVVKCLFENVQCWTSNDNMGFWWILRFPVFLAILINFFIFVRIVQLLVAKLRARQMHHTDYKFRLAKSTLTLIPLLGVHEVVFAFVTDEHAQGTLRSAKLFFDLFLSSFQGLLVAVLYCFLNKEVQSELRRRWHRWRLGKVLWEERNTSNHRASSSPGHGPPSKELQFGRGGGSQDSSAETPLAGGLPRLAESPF
In short: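 Membranes from CHO-K1 cells overexpressing GCGR (7.5 µg/well) were preincubated 5 min with serially diluted compound in 50 mM Tris pH 7.4, 0.5% BSA. I125-glucagon was then added at 0.0625 nM final and incubated 30 min at 25 °C. After filtration, bound radioactivity was counted and IC50 derived by non-linear regression.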

T1 sequence (P47871 26-477, species assumed): as above

Structure (SMILES)	IC50 (glucagon receptor (GCGR)) [µM]	IC50 (GCGR) [µM]	inhibition at 30 µM (GCGR; compound at 30 μM, read-out: percentage of inhibition (number in parenthesis in IC50 binding column)) [%]
CCOC(=O)CCNC(=O)c1ccc(NC(c2ccc(-c3nnc(C(F)(F)F)o3)cc2)C(C)CC)cc1 (centres unmarked) [Compound 1-31, ethyl 3-(4-((2-methyl-1-(4-(5-(trifluoromethyl)-1,3,4-oxadiazol-2-yl)phenyl)butyl)amino)benzamido)propanoate]	0.088	> 30	
CCOC(=O)CCNC(=O)c1ccc([C@@H](Nc2ccc(-c3nnc(-c4ccccc4)o3)cc2)C(C)C)cc1 [Compound 3-12, (S)-ethyl 3-(4-(2-methyl-1-(4-(5-phenyl-1,3,4-oxadiazol-2-yl)phenylamino)propyl)benzamido)propanoate]	0.277	> 30	
CCOC(=O)CCNC(=O)c1ccc(N[C@H](c2ccc(-c3nc4ccccc4s3)cc2)C(C)C)nc1 [Compound 4-27, ethyl (S)-3-(6-((1-(4-(benzo[d]thiazol-2-yl)phenyl)-2-methylpropyl)amino)nicotinamido)propanoate]	0.0423	0.127	
CC(C)C(Nc1ccc(C(=O)NCCC(=O)O)cc1)c1ccc(-c2noc(-c3cccs3)n2)cc1 (centres unmarked) [Compound 2-12, 3-(4-((2-methyl-1-(4-(5-(thiophen-2-yl)-1,2,4-oxadiazol-3-yl)phenyl)propyl)amino)benzamido)propanoic acid]	0.504	0.354	
CCOC(=O)CCNC(=O)c1ccc(N[C@H](CC(C)C)c2ccc(-c3noc(-c4ccccc4)n3)cc2)cc1 [Compound 2-42, ethyl (R)-3-(4-((3-methyl-1-(4-(5-phenyl-1,2,4-oxadiazol-3-yl)phenyl)butyl)amino)benzamido)propanoate]	0.248	0.042	
CC(C)[C@H](Nc1ccc(C(=O)NCCC(=O)O)cc1)c1ccc(-c2nc3ccccc3s2)cc1 [Compound 4-26, (S)-3-(4-((1-(4-(benzo[d]thiazol-2-yl)phenyl)-2-methylpropyl)amino)benzamido)propanoic acid]	1.02	0.0423	
CCOC(=O)CCNC(=O)c1ccc(N[C@H](c2ccc(-c3nc(-c4ccccc4)no3)cc2)C(C)C)cc1 [Compound 5-3, ethyl (S)-3-(4-((2-methyl-1-(4-(3-phenyl-1,2,4-oxadiazol-5-yl)phenyl)propyl)amino)benzamido)propanoate]	0.0714	1.74	
CCCCC(Nc1ccc(C(=O)NCCC(=O)OC)cc1)c1ccc(-c2nnc(-c3ccccn3)o2)cc1 (centres unmarked) [Compound 1-38, methyl 3-(4-((1-(4-(5-(pyridin-2-yl)-1,3,4-oxadiazol-2-yl)phenyl)pentyl)amino)benzamido)propanoate]	0.08	1.58	
CCOC(=O)CCNC(=O)c1ccc(N[C@@H](c2ccc(-c3nnc(C(F)(F)F)o3)cc2)C(C)CC)cc1 (stereo partly drawn) [Compound 1-35, ethyl 3-(4-(((1R)-2-methyl-1-(4-(5-(trifluoromethyl)-1,3,4-oxadiazol-2-yl)phenyl)butyl)amino)benzamido)propanoate]	0.384	> 30	
CC(C)[C@H](Nc1ccc(-c2nnc(-c3ccccc3)o2)cc1)c1ccc(C(=O)NCCC(=O)O)cc1 [Compound 3-14, (S)-3-(4-(2-methyl-1-(4-(5-phenyl-1,3,4-oxadiazol-2-yl)phenylamino)propyl)benzamido)propanoic acid]	1.78	0.957	
CCCC[C@H](Nc1ccc(C(=O)NCCC(=O)O)cc1)c1ccc(-c2noc(C(F)(F)F)n2)cc1 [Compound 2-47, (S)-3-(4-((1-(4-(5-(trifluoromethyl)-1,2,4-oxadiazol-3-yl)phenyl)pentyl)amino)benzamido)propanoic acid]	0.428	0.254	
CCOC(=O)CCNC(=O)c1ccc(NC(CC(C)C)c2ccc(-c3nnc(-c4ccc(F)cc4)o3)cc2)cc1 (centres unmarked) [Compound 1-27, ethyl 3-(4-((1-(4-(5-(4-fluorophenyl)-1,3,4-oxadiazol-2-yl)phenyl)-3-methylbutyl)amino)benzamido)propanoate]	0.118	> 30	
CCOC(=O)CCNC(=O)c1ccc(NC(c2ccc(-c3nnc(-c4ccc(OC)cc4)o3)cc2)C(C)C)cc1 (stereo not drawn) [Compound 1-25, ethyl 3-(4-((l-(4-(5-(4-methoxyphenyl)-1,3,4-oxadiazol-2-yl)phenyl)-2-methylpropyl)amino)benzamido)propanoate]	0.284	> 30	
CCCC[C@@H](Nc1ccc(C(=O)NCCC(=O)OCC)cc1)c1ccc(-c2noc(-c3ccccc3)n2)cc1 [Compound 2-35, ethyl (R)-3-(4-((1-(4-(5-phenyl-1,2,4-oxadiazol-3-yl)phenyl)pentyl)amino)benzamido)propanoate]	0.852	0.04	
CCC(C)[C@H](Nc1ccc(C(=O)NCCC(=O)O)cc1)c1ccc(-c2nnc(C(F)(F)F)o2)cc1 (stereo partly drawn) [Compound 1-36, 3-(4-(((1S)-2-methyl-1-(4-(5-(trifluoromethyl)-1,3,4-oxadiazol-2-yl)phenyl)butyl)amino)benzamido)propanoic acid]	2.04	0.359	
CCOC(=O)CCNC(=O)c1ccc(NC(c2ccc(-c3nnc(-c4ccccc4)o3)cc2)C(C)CC)cc1 (centres unmarked) [Compound 1-10, Ethyl 3-(4-((2-methyl-1-(4-(5-phenyl-1,3,4-oxadiazol-2-yl)phenyl)butyl)amino)benzamido)propanoate]	0.025	1.87	34
CC(C)C[C@H](Nc1ccc(C(=O)NCCC(=O)O)cc1)c1ccc(-c2noc(-c3ccccc3)n2)cc1 [Compound 2-43, (S)-3-(4-((3-methyl-1-(4-(5-phenyl-1,2,4-oxadiazol-3-yl)phenyl)butyl)amino)benzamido)propanoic acid]	0.391	> 30	
CCC(C)[C@H](Nc1ccc(C(=O)NCCC(=O)O)cc1)c1ccc(-c2noc(C(F)(F)F)n2)cc1 (stereo partly drawn) [Compound 2-30, 3-(4-(((1S)-2-methyl-1-(4-(5-(trifluoromethyl)-1,2,4-oxadiazol-3-yl)phenyl)butyl)amino)benzamido)propanoic acid]	0.55	0.166	
CC(C)[C@H](Nc1ccc(C(=O)NCCC(=O)O)cc1)c1ccc(-c2noc(-c3ccccc3)n2)cc1 [Compound 2-28, (S)-3-(4-((2-methyl-1-(4-(5-phenyl-1,2,4-oxadiazol-3-yl)phenyl)propyl)amino)benzamido)propanoic acid]	0.295	0.029	
COC(=O)CCNC(=O)c1ccc(N[C@H](c2ccc(-c3nnc(-c4ccccc4)o3)cc2)C(C)C)cc1 [Compound 1-63, methyl (S)-3-(4-((2-methyl-1-(4-(5-phenyl-1,3,4-oxadiazol-2-yl)phenyl)propyl)amino)benzamido)propanoate]	0.028	1.53	
CC(C)C[C@H](Nc1ccc(C(=O)NCCC(=O)O)cc1)c1ccc(-c2nc(-c3ccccc3)no2)cc1 [Compound 5-2, (S)-3-(4-((3-methyl-1-(4-(3-phenyl-1,2,4-oxadiazol-5-yl)phenyl)butyl)amino)benzamido)propanoic acid]	0.211	0.02	
CCCC[C@@H](Nc1ccc(C(=O)NCCC(=O)O)cc1)c1ccc(-c2nc3ccccc3o2)cc1 [Compound 4-10]	1.5	0.15	
CCCC[C@@H](Nc1ccc(C(=O)NCCC(=O)O)cc1)c1ccc(-c2noc(-c3ccccc3)n2)cc1 [Compound 2-36, (R)-3-(4-((1-(4-(5-phenyl-1,2,4-oxadiazol-3-yl)phenyl)pentyl)amino)benzamido)propanoic acid]	0.338	0.199	
CC(C)C(Nc1ccc(-c2nnc(-c3ccccc3)o2)cc1)c1ccc(C(=O)NCCC(=O)O)cc1 (centres unmarked) [Compound 3-2, 3-(4-(2-methyl-1-((4-(5-phenyl-1,3,4-oxadiazol-2-yl)phenyl)amino)propyl)benzamido)propanoic acid]	2.9	0.017	
CCCCC(Nc1ccc(C(=O)NCCS(=O)(=O)O)cc1)c1ccc(-c2nnc(-c3ccccc3)o2)cc1 (centres unmarked) [Compound 1-13, 2-(4-((1-(4-(5-phenyl-1,3,4-oxadiazol-2-yl)phenyl)pentyl)amino)benzamido)ethane-1-sulfonic acid]	> 30	0.314	
CC(C)[C@H](Nc1ccc(C(=O)NCCC(=O)O)cc1)c1ccc(-c2nnc(C(F)(F)F)o2)cc1 (racemic) [Compound 1-57, (RS)-3-(4-((2-methyl-1-(4-(5-(trifluoromethyl)-1,3,4-oxadiazol-2-yl)phenyl)propyl)amino)benzamido)propanoic acid]	> 30	2.5	
CCOC(=O)CCNC(=O)c1ccc(C(Oc2ccc(-c3nc4ccccc4s3)cc2)C(C)C)cc1 (centres unmarked) [Compound 7-3, Ethyl 3-(4-(1-(4-(benzo[d]thiazol-2-yl)phenoxy)-2-methylpropyl)benzamido)propanoate]	0.292	2.11	
CCOC(=O)CCNC(=O)c1ccc(N[C@@H](CC(C)C)c2ccc(-c3noc(-c4ccccc4)n3)cc2)cc1 [Compound 2-41, ethyl (S)-3-(4-((3-methyl-1-(4-(5-phenyl-1,2,4-oxadiazol-3-yl)phenyl)butyl)amino)benzamido)propanoate]	0.0711	0.389	
O=C(O)CCNC(=O)c1ccc(NC(c2ccc(-c3noc(-c4ccccc4)n3)cc2)C2CCCCC2)cc1 (centres unmarked) [Compound 2-17, 3-(4-((cyclohexyl(4-(5-phenyl-1,2,4-oxadiazol-3-yl)phenyl)methyl)amino)benzamido)propanoic acid]	0.511	0.054	
